Laboratory results as given in US11407738B2 (Achillion Pharmaceuticals, Inc., priority 2015, dated 2022).

Biological target: Human Factor D (Homo sapiens (Human), UniProt P00746)
Test: Human Factor D assay
Assay type: biochemical
Conditions: Factor D inhibition, substrate Z-L-Lys-SBzl
Protocol: Human Factor D (purified from human serum, Complement Technology, Inc.) at 80 nM final concentration is incubated with test compound at various concentrations for 5 min at room temperature in 50 mM Tris, 1M NaCl, pH 7.5. A synthetic substrate Z-L-Lys-SBzl and DTNB (Ellman's reagent) are added to final concentrations of 100 μM each. […] IC50 values are calculated by nonlinear regression of complement Factor D reaction rates as a function of test compound concentration.

Human Factor D, sequence (P00746 26-253): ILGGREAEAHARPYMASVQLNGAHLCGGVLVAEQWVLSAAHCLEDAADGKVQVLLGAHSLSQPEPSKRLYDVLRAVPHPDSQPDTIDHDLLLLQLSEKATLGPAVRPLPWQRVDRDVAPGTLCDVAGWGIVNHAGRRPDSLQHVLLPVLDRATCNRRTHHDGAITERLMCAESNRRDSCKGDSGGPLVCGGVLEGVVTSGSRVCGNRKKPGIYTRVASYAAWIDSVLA

**Q.** With CC[C@H](NC(=O)Cn1nc(C(C)=O)c2cc(-c3cnc(C)nc3)ccc21)C(=O)Nc1cccc(Br)n1 [Compound 600] as the compound, how does the IC50 (Table 4) read?
**A.** < 1000 nM

**Q.** CC(=O)c1nn(CC(=O)N2C[C@H](F)C[C@H]2C(=O)NCC#N)c2ccc(-c3cnc(C)nc3)cc12 [Compound 601] was tested. Which IC50 (Table 4) did it give?
**A.** < 1000 nM

**Q.** For CC(=O)c1nn(CC(=O)N2C[C@H](F)C[C@H]2c2nnc(CCCC(F)(F)F)o2)c2ccc(-c3cnc(C)nc3)cc12 [Compound 583, 2-(3-Acetyl-5-(2-methylpyrimidin-5-yl)-H-indazol-1-yl)-1-((2S,4R)-4-fluoro-2-(5-(4,4,4-trifluorobutyl)-1,3,4-oxadiazol-2-yl)pyrrolidin-1-yl)ethan-1-one], which IC50 (Table 4) is on record?
**A.** 1000 to 10000 nM

**Q.** Which IC50 (Table 4) does the source give for CC(=O)c1nn(CC(=O)N2C[C@H](F)C[C@H]2CNS(=O)(=O)c2cccc(Cl)c2F)c2ccc(-c3cnc(C)nc3)cc12 [Compound 563, N-(((2S,4R)-1-(2-(3-acetyl-5-(2-methylpyrimidin-5-yl)-1H-indazol-1-yl)acetyl)-4-fluoropyrrolidin-2-yl)methyl)-3-chloro-2-fluorobenzene-sulfonamide] here?
**A.** < 1000 nM

**Q.** How did the IC50 (Table 4) turn out when CC(=O)c1nn(CC(=O)N2C[C@H](F)C[C@H]2C(=O)OCc2ccc(Br)nc2N)c2ccc(-c3cnc(C)nc3)cc12 [Compound 570, (2S,4R)-(2-amino-6-bromopyridin-3-yl)methyl 1-(2-(3-acetyl-5-(2-methylpyrimidin-5-yl)-1H-indazol-1-yl)acetyl)-4-fluoropyrrolidine-2-carboxylate] was run?
**A.** > 10000 nM

**Q.** Cc1ncc(-c2ccc3c(c2)c(C(C)O)nn3CC(=O)N2C[C@H](F)C[C@H]2C(=O)O)cn1 (stereo partly drawn) [Compound 631, (2S,4R)-4-Fluoro-1-(2-(3-(1-hydroxyethyl)-5-(2-methylpyrimidin-5-yl)-11-indazol-1-yl)acetyl)pyrrolidine-2-carboxylic Acid] was tested. Which IC50 (Table 4) did it give?
**A.** > 10000 nM

**Q.** How did the IC50 (Table 4) turn out when CC(=O)c1nn(CC(=O)N2C[C@H](F)C[C@H]2C(=O)Nc2cccc(-c3ccc4scnc4c3)c2F)c2ccc(-c3cnc(C)nc3)cc12 [Compound 638, (2S,4R)-1-(2-(3-acetyl-5-(2-methylpyrimidin-5-yl)-1H-indazol-1-yl)acetyl)-N-(3-(benzo[d]thiazol-5-yl)-2-fluorophenyl)-4-fluoropyrrolidine-2-carboxamide] was run?
**A.** < 1000 nM

**Q.** How did the IC50 (Table 4) turn out when COC(=O)[C@@H]1C[C@@H](F)CN1C(=O)Cn1nc(C(C)O)c2cc(-c3cnc(C)nc3)ccc21 (stereo partly drawn) [Compound 633, Methyl (2S,4R)-4-fluoro-1-(2-(3-(1-hydroxyethyl)-5-(2-methylpyrimidin-5-yl)-1H-indazol-1-yl)acetyl)pyrrolidine-2-carboxylate] was run?
**A.** > 10000 nM

**Q.** Which IC50 (Table 4) does the source give for Cc1cccc(NC(=O)[C@@H]2CCC(F)CCN2C(=O)Cn2cc(C(N)=O)c3cc(-c4ccc5c(c4)CCCC5)ccc32)n1 (stereo partly drawn) [Compound 589, 1-(2-((2S)-5-fluoro-2-((6-methylpyridin-2-yl)carbamoyl)azepan-1-yl)-2-oxoethyl)-5-(5,6,7,8-tetrahydronaphthalen-2-yl)-1H-indole-3-carboxamide] here?
**A.** > 10000 nM

**Q.** CC(=O)c1nn(CC(=O)N2C[C@H](F)C[C@H]2C(=O)Nc2cccc(-c3ccc4scnc4c3)c2F)c2ccc(-c3cnc4cc(C)nn4c3)cc12 [Compound 639, (2S,4R)-1-(2-(3-acetyl-5-(4-methylpyrazolo[1,5-a]pyrimidin-6-yl)-1H-indazol-1-yl)acetyl)-N-(3-(benzo[d]thiazol-5-yl)-2-fluorophenyl)-4-fluoropyrrolidine-2-carboxamide] was tested. Which IC50 (Table 4) did it give?
**A.** < 1000 nM

**Q.** Which IC50 (Table 4) does the source give for CCOP(=O)(OCC)OC[C@@]12C[C@@H]1N(C(=O)Cn1nc(C(C)=O)c3cc(-c4cnc(C)nc4)ccc31)[C@H](C(=O)Nc1cccc(Br)n1)C2 [Compound 628, ((1S,3S,5R)-2-(2-(3-acetyl-5-(2-methylpyrimidin-5-yl)-1H-indazol-1-yl)acetyl)-3-((6-bromopyridin-2-yl)carbamoyl)-2-azabicyclo[3.1.0]hex-an-5-yl)methyl diethyl phosphate] here?
**A.** 1000 to 10000 nM

**Q.** With Cc1cccc(NC(=O)[C@@H]2CCC(F)CCN2C(=O)Cn2cc(C(N)=O)c3cc(-c4ccc5c(c4)CC5)ccc32)n1 (stereo partly drawn) [Compound 587, 5-(1,2-Dihydrocyclobutabenzen-4-yl)-1-(2-((2S)-5-fluoro-2-(6-methylpyridin-2-ylcarbamoyl)azepan-1-yl)-2-oxoethyl)-1H-indole-3-carboxamide] as the compound, how does the IC50 (Table 4) read?
**A.** > 10000 nM

**Q.** With Cc1ncc(-c2ccc3c(c2)c(C(=N)N)nn3CC(=O)N2C[C@H](F)C[C@H]2C(=O)Nc2cccc(-c3ccccc3Cl)c2F)cn1 [Compound 542, (2S,4R)-1-(2-(3-Carbamimidoyl-5-(2-methylpyrimidin-5-yl)-1H-indazol-1-yl)acetyl)-N-(2′-chloro-2-fluoro-[1,1′-biphenyl]-3-yl)-4-fluoropyrrolidine-2-carboxamide] as the compound, how does the IC50 (Table 4) read?
**A.** < 1000 nM

**Q.** For Cc1cccc(NC(=O)[C@@H]2CCC(F)CCN2C(=O)Cn2cc(C(N)=O)c3cc(-c4ccc(F)nc4)ccc32)n1 (stereo partly drawn) [Compound 590, 1-(2-((2S)-5-Fluoro-2-((6-methylpyridin-2-yl)carbamoyl)azepan-1-yl)-2-oxoethyl)-5-(6-fluoropyridin-3-yl)-1H-indole-3-carboxamide], which IC50 (Table 4) is on record?
**A.** > 10000 nM

**Q.** For CC(=O)c1nn2c3ccc(cc13)-c1cnc(nc1)NCCCCCCCCC/C=C\c1cc(Cl)c(F)c(c1)CNC(=O)[C@@H]1C[C@@H](F)CN1C(=O)C2 [Compound 518, (5^2S,5^4R,Z)-2^3-acetyl-9^5-chloro-5^4,9^6-difluoro-2^1H-7,21-diaza-2(5,1)-indazola-1(5,2)-pyrimidina-5(1,2)-pyrrolidina-9(1,3)-benzenacyclohenico-saphan-10-ene-4,6-dione], which IC50 (Table 3) is on record?
**A.** < 1000 nM

**Q.** For Cc1ncc(-c2ccc3c(c2)c(C(N)=S)nn3CC(=O)N2C[C@H](F)C[C@H]2C(=O)Nc2cccc(Br)n2)cn1 [Compound 527, (2S,4R)—N-(6-Bromopyridin-2-yl)-1-(2-(3-carbamothioyl-5-(2-methylpyrimidin-5-yl)-1H-indazol-1-yl)acetyl)-4-fluoropyrrolidine-2-carboxamide], which IC50 (Table 3) is on record?
**A.** < 1000 nM

**Q.** With CC(=O)c1cn(CC(=O)N[C@H](C(=O)Nc2cccc(Br)n2)[C@@H](C)O)c2ccc(-c3cnc(C)nc3)cc12 [Compound 505, (2S,3R)-2-(2-(3-Acetyl-5-(2-methylpyrimidin-5-yl)-1H-indol-1-yl)acetamido)-N-(6-bromopyridin-2-yl)-3-hydroxybutanamide] as the compound, how does the IC50 (Table 3) read?
**A.** < 1000 nM

**Q.** Which IC50 (Table 4) does the source give for Cc1cccc(NC(=O)[C@@H]2CCC(F)CCN2C(=O)Cn2cc(C(N)=O)c3cc(-c4cccnc4)ccc32)n1 (stereo partly drawn) [Compound 588, 1-(2-((2S)-5-Fluoro-2-((6-methylpyridin-2-yl)carbamoyl)azepan-1-yl)-2-oxoethyl)-5-(pyridin-3-yl)-1H-indole-3-carboxamide] here?
**A.** > 10000 nM

**Q.** How did the IC50 (Table 4) turn out when Cc1cc2ncc(-c3nc4c(s3)c(C(N)=O)nn4CC(=O)N3C[C@H](F)C[C@H]3C(=S)NC3CCC(c4cc5sccc5s4)C3)cn2n1 (stereo partly drawn) [Compound 640, 1-(2-((2S,4R)-4-fluoro-2-((3-(thieno[3,2-b]thiophen-2-yl)cyclopentyl)carba-mothioyl)pyrrolidin-1-yl)-2-oxoethyl)-5-(2-methylpyrazolo[1,5-a]pyrimidin-6-yl)-1H-pyrazolo[3,4-d]thiazole-3-carboxamide] was run?
**A.** > 10000 nM

**Q.** For COP(=O)(CC(=O)c1nn(CC(=O)N2C[C@H](F)C[C@H]2C(=O)Nc2cccc(Br)n2)c2ccc(-c3cnc(C)nc3)cc12)OC [Compound 625, dimethyl (2-(1-(2-((2S,4R)-2-((6-bromopyridin-2-yl)carbamoyl)-4-fluoropyrrolidin-1-yl)-2-oxoethyl)-5-(2-methylpyrimidin-5-yl)-1H-indazol-3-yl)-2-oxoethyl)phos-phonate], which IC50 (Table 4) is on record?
**A.** > 10000 nM

**Q.** With CC(=O)c1nn(CC(=O)N2C[C@H](F)C[C@H]2C(=O)Nc2cccc(Br)n2)c2ccc(N3CCn4c(nnc4C(F)(F)F)C3)cc12 [Compound 618, (2S,4R)-1-(2-(3-acetyl-5-(3-(trifluoromethyl)-5,6-dihydro-[1,2,4]triazolo[4,3-a]pyrazin-7(8H)-yl)-1H-indazol-1-yl)acetyl)-N-(6-bromopyridin-2-yl)-4-fluoropyrrolidine-2-carboxamide] as the compound, how does the IC50 (Table 4) read?
**A.** < 1000 nM

**Q.** Which IC50 (Table 3) does the source give for COC(=O)C[C@H]1CCCN1C(=O)Cn1nc(C(C)=O)c2cc(-c3cnc(C)nc3)ccc21 [Compound 509, (R)-methyl 2-(1-(2-(3-acetyl-5-(2-methylpyrimidin-5-yl)-1H-indazol-1-yl)acetyl)pyrrolidin-2-yl)acetate] here?
**A.** > 10000 nM

**Q.** With CC(=O)c1nn(CC(=O)N2C[C@H](F)C[C@H]2C(=O)Nc2cccc(Br)n2)c2ccc(N3C[C@H]4CCCC[C@H]4C3)cc12 [Compound 621, (2S,4R)-1-(2-(3-acetyl-5-((3aR,7aS)-hexahydro-1H-isoindol-2(3H)-yl)-1H-indazol-1-yl)acetyl)-N-(6-bromopyridin-2-yl)-4-fluoropyrrolidine-2-carboxamide] as the compound, how does the IC50 (Table 4) read?
**A.** < 1000 nM

**Q.** How did the IC50 (Table 4) turn out when CC[C@@H](NC(=O)Cn1nc(C(C)=O)c2cc(-c3cnc(C)nc3)ccc21)C(=O)Nc1cccc(Br)n1 [Compound 599] was run?
**A.** > 10000 nM

**Q.** With CO[C@@H]1CO[C@H]2[C@@H]1OC[C@H]2Oc1ncc(-c2ccc3c(c2)c(C(C)=O)cn3CC(=O)N2C[C@H](F)C[C@H]2C(=O)Nc2cccc(-c3ccccc3Cl)c2F)cn1 [Compound 503, (2S,4R)-1-(2-(3-Acetyl-5-(2-((3R,3aR,6R,6aR)-6-methoxyhexahydrofuro[3,2-b]furan-3-yloxy)pyrimidin-5-yl)-1H-indol-1-yl)acetyl)-N-(2′-chloro-2-fluorobiphenyl-3-yl)-4-fluoropyrrolidine-2-carboxamide] as the compound, how does the IC50 (Table 3) read?
**A.** < 1000 nM

**Q.** Which IC50 (Table 3) does the source give for CC(=O)c1nn(CC(=O)N2C[C@H](F)C[C@H]2C(=O)NC2CCN(c3ccc(C(=O)O)cn3)CC2)c2ccc(-c3cnc(C)nc3)cc12 [Compound 512, 6-(4-((2S,4R)-1-(2-(3-Acetyl-5-(2-methylpyrimidin-5-yl)-1H-indazol-1-yl)acetyl)-4-fluoropyrrolidine-2-carboxamido)piperidin-1-yl)nicotinic Acid] here?
**A.** 1000 to 10000 nM
